Experimental data as given in ChEMBL document CHEMBL6074662, “Antibacterial, Antibiofilm, and Anti-inflammatory Effects of a Novel Thrombin-Derived Peptide in Sepsis Models: Insights into Underlying Mechanisms” (J Med Chem, 2024).
Activity calls are given as the source filed them. The rule behind the calls is not given here.

Key:
Escherichia coli [1] = assay: Induction of inner membrane permeabilization in Escherichia coli KCTC 1682 at MIC by PI staining based flow cytometry (reference value: 1.51 %); format: functional
Staphylococcus aureus [2] = assay: Synergistic antibacterial activity against methicillin-resistant Staphylococcus aureus CCARM 3089 assessed as fractional inhibitory concentration index by measuring ratio of MIC of compound in presence of Chloramphenicol to MIC to compound incubated for 24 hrs by broth microdilution method; format: functional
Bacillus subtilis = assay: Antibacterial activity against Bacillus subtilis KCTC 3068 incubated for 24 hrs by CLSI based broth microdilution method; format: functional
Staphylococcus aureus [3] = assay: Synergistic antibacterial activity against methicillin-resistant Staphylococcus aureus CCARM 3089 incubated for 24 hrs in presence of Ciprofloxacin by broth microdilution method; format: functional
Pseudomonas aeruginosa [4] = assay: Eradication of biofilm formation in multi-drug resistant Pseudomonas aeruginosa CCARM 2095 at 32 uM incubated for 12 hrs by CLSM analysis relative to control; format: functional
Pseudomonas aeruginosa [5] = assay: Synergistic antibacterial activity against multi-drug resistant Pseudomonas aeruginosa CCARM 2095 incubated for 24 hrs in presence of Ciprofloxacin by broth microdilution method; format: functional
Staphylococcus aureus [6] = assay: Synergistic antibacterial activity against methicillin-resistant Staphylococcus aureus CCARM 3089 assessed as fractional inhibitory concentration index by measuring ratio of MIC of compound in presence of Ciprofloxacin to MIC to compound incubated for 24 hrs by broth microdilution method; format: functional
[7] = Cytotoxicity against mouse RAW264.7 cells assessed as cell survival at 10 to 20 uM incubated for 16 hrs by WST-8 assay relative to control; format: toxicity, cell-based; details: dose 10-20 µM, read-out: Survival
Enterococcus faecium = assay: Antibacterial activity against vancomycin-resistant Enterococcus faecium ATCC 51559 incubated for 24 hrs by CLSI based broth microdilution method; format: functional
Pseudomonas aeruginosa [8] = assay: Antibacterial activity against multidrug-resistant Pseudomonas aeruginosa CCARM 2095 incubated for 24 hrs by CLSI based broth microdilution method; format: functional
Escherichia coli [9] = assay: Induction of cytoplasmic membrane potential in Escherichia coli KCTC 1682 at 0.5 to 1 times MIC measured for 500 secs by diSC3-5 dye based analysis; format: functional, organism-based; details: time 500.0 sec
Pseudomonas aeruginosa [10] = assay: Synergistic antibacterial activity against multi-drug resistant Pseudomonas aeruginosa CCARM 2095 assessed as fractional inhibitory concentration index by measuring ratio of MIC of compound in presence of Ciprofloxacin to MIC to compound incubated for 24 hrs by broth microdilution method; format: functional
Mus musculus [11] = assay: (§1) Antiseptic activity in sepsis shock ICR mouse model infected with carbapenem-resistant Acinetobacter baumannii assessed as reduction in serum IL-6 level at 1 mg/kg, ip pretreated with compound for 1 hr followed by bacterial infection measured after 16 hrs relative to control; format: functional; set-up: scale not given: the % may be the effect or the level left; details: time 17 hrs
[12] = Effect on secondary structure of drug in LPS assessed as formation of left-handed alpha-helical conformation at 150 uM by CD analysis; format: physicochemical
Acinetobacter baumannii = assay: Antibacterial activity against carbapenem-resistant Acinetobacter baumannii 1915 incubated for 24 hrs by CLSI based broth microdilution method; format: functional, organism-based
RAW264.7 [13] = assay: Anti-inflammatory activity in mouse RAW264.7 cells assessed as decrease in LPS-induced NO production upto 10 uM pretreated for 1 hr followed by LPS treatment for 16 hrs by Griess assay; format: functional, cell-based; details: time 17.0 hrs
Mus musculus [14] = assay: (§2) Antiseptic activity in sepsis shock ICR mouse model infected with carbapenem-resistant Acinetobacter baumannii assessed as reduction in bacterial count in lungs at 1 mg/kg, ip pre-infected with bacteria followed by compound administration 1 hr post-infection measured after 16 hrs relative to control; format: functional; set-up: scale not given: the % may be the effect or the level left
[15] = Effect on secondary structure of drug in SDS assessed as formation of left-handed alpha-helical conformation at 150 uM by CD analysis; format: physicochemical
Mus musculus [16] = assay: Antiseptic activity in sepsis shock ICR mouse model infected with carbapenem-resistant Acinetobacter baumannii assessed as decrease in endotoxin level in serum at 1 mg/kg, ip pretreated with compound for 1 hr followed by bacterial infection measured after 16 hrs relative to control; format: functional; set-up: scale not given: the % may be the effect or the level left; details: time 17 hrs
Mus musculus [17] = assay: Antiseptic activity in sepsis shock ICR mouse model infected with carbapenem-resistant Acinetobacter baumannii assessed as decrease in TNF-alpha level in serum at 1 mg/kg, ip pretreated with compound for 1 hr followed by bacterial infection measured after 16 hrs relative to control; format: functional; set-up: scale not given: the % may be the effect or the level left; details: time 17 hrs
RAW264.7 [18] = assay: Inhibition of cell binding activity of FITC-labeled LPS to surface receptors of mouse RAW264.7 cells at 8 uM incubated for 1 hr by flow cytometry; format: cell-based
Mus musculus [19] = assay: as §1, with “recovery of neutrophil infiltration” for “reduction”, “lungs” for “serum IL-6 level”, “by H and E staining based analysis” for “relative to control”; format: functional, organism-based; details: time 17.0 hrs
Mus musculus [20] = assay: Antiseptic activity in sepsis shock ICR mouse model infected with carbapenem-resistant Acinetobacter baumannii assessed as decrease in BUN level in serum at 1 mg/kg, ip pretreated with compound for 1 hr followed by bacterial infection measured after 16 hrs relative to control; format: functional; set-up: scale not given: the % may be the effect or the level left; details: time 17 hrs
Lipopolysaccharide (LPS) = assay: Displacement of BODIPY-TR-cadaverine from Escherichia coli 0111:B4 LPS incubated for 30 mins by fluorescence based assay; details: dose <= 32.0 µM
Mus musculus [21] = assay: as §2, with “kidney” for “lungs”; format: functional; set-up: scale not given: the % may be the effect or the level left
[22] = target: Toll-like receptor 4 (Homo sapiens) (UniProt O00206); assay: Inhibition of LPS-induced human TLR4 activation expressed in HEK-Blue hTLR4 cells assessed as decrease in SEAP activity at 12.5 uM pretreated for 1 hr followed by LPS treatment for 16 hrs by absorbance based assay relative to control; format: cell-based; details: time 17.0 hrs
Chain of Toll-like receptor 4 (Homo sapiens) (O00206 whole entry): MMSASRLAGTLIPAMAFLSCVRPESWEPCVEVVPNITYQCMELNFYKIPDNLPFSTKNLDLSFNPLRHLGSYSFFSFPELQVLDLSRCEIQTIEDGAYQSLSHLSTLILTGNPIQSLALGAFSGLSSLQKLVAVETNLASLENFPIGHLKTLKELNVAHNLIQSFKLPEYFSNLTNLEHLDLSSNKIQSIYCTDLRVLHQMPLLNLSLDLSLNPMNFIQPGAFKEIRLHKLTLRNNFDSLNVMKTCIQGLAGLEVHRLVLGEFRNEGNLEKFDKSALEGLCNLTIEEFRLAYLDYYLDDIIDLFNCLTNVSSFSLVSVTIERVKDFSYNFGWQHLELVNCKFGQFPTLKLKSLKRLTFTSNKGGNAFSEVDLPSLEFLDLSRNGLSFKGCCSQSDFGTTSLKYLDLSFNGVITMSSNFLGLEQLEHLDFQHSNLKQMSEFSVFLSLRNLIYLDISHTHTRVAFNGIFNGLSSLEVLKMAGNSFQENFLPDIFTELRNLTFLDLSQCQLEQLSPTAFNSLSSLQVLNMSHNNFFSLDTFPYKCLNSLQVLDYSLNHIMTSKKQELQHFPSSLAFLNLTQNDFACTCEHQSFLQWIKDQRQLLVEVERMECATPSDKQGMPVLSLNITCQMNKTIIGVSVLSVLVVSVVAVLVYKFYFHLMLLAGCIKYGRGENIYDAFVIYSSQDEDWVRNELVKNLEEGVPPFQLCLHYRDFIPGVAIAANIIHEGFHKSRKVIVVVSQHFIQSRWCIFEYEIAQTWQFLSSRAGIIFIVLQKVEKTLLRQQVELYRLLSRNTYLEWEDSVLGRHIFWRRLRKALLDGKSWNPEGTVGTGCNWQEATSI

Substance | Activity (Escherichia coli [1]) [%] | FIC (Staphylococcus aureus [2]) | MIC (Bacillus subtilis) [µM] | MIC (Staphylococcus aureus [3]) [µM] | Activity (Pseudomonas aeruginosa [4]) [%] | MIC (Pseudomonas aeruginosa [5]) [µM] | FIC (Staphylococcus aureus [6]) | viability at 16 h, up to 20 µM [7] [%] | MIC (Enterococcus faecium) [µM] | MIC (Pseudomonas aeruginosa [8]) [µM] | Activity (Escherichia coli [9]) | FIC (Pseudomonas aeruginosa [10]) | further results
H-GVFRLKKWIKKVIKKWGK-NH2 | ~100 | 0.25 | 4 | 2 | >50 | 4 | 0.25 | > 95 | 8 | 8 | Active | 0.5 | –
H-GVFRLKKWLKKVKKWGK-NH2 | ~100 | 0.063 | 4 | 4 | >50 | 4 | 0.5 | > 95 | 8 | 8 | Active | 0.5 | Activity (Mus musculus [11]): 100%; Activity [12]: Active; Activity (Acinetobacter baumannii): Active; Activity (RAW264.7 [13]): Active; Activity (Mus musculus [14]): 92.3%; Activity [15]: Active; Activity (Mus musculus [16]): >56.1%; Activity (Mus musculus [17]): 49.4%; inhibition (RAW264.7 [18]): Active; Activity Comparable To Ll-37 And Pmb; Activity (Mus musculus [19]): Active; Activity (Mus musculus [20]): 56.7%; Activity (Lipopolysaccharide (LPS)): Dose-dependent-effect; Activity Similar To Ll-37; Activity (Mus musculus [21]): 96.7%; inhibition [22]: 92.1%
